Data on 5 molecules can be found in patent US8609620B2, “Neuregulin peptides and their use” (Zensun (Shanghai) Science & Technology Ltd., priority 2008, dated 2013).

Assay [1] relates to AKT phosphorylation in cardiomyocytes. Put plainly: Effect of neuregulin peptides on the phosphorylation of AKT in cardiomyocytes (western blot). Format: cell-based, rat. To be noted: cardiac cells from left ventricles of neonatal rats, different concentrations, 20 minutes, FIG. 1. The protocol:
To study the effect of synthesized peptides on ErbB2 and ErbB4 signaling in cardiomyocytes, cardiac cells extracted from left ventricles of neonatal rats were used.
Cardiac cells were grown in media with serum for 2 days. After the cells reached about 80% confluence, the media was changed to serum free media. After another 24 hours, different amounts of synthesized neuregulin peptides or neuregulin were added into separate wells containing the cells for 20 minutes. The media was then aspirated and gel loading buffer was added to lyse the cells. The sample was then harvested and loaded into a separate well of gel for electrophoresis and western blot analysis.

The target in the next assay is T1, ErbB2 receptor (Homo sapiens, UniProt P04626+P21860).
T1 construct: endogenous in cells; host or cells: MCF-7
Put plainly: Receptor binding: neuregulin-induced ErbB2 phosphorylation in MCF-7 cells (ErbB2 antibody H4 capture, anti-phosphotyrosine ELISA). Format: cell-based. The note with it: 20 min at 37° C., concentration achieving 50% of maximum OD value at 450 nm.

Excerpt for ErbB2 receptor: Briefly, the assay measures neuregulin induced ErbB2 activation and phosphorylation on the adherent breast carcinoma cell line, MCF-7. Membrane proteins are solubilized via Triton X-100 lysis and the receptor is captured in ELISA wells coated with ErbB2-specific antibodies (e.g., H4) with no cross-reaction to ErbB3 or ErbB4. The degree of receptor phosphorylation is then quantified by antiphosphotyrosine ELISA.
MCF-7 cells was harvested, counted, pelleted and resuspended into DMEM (with 10% serum and 9 μg/ml insulin) at 5×10^4 cells/ml. 100 μl cell suspension was added to each well of 96 well plate and the plate was incubated at 37° C. overnight. The cells were then washed 3 times with PBS and grew in serum free DMEM for another 24 hours.
ErbB2 antibody H4 (Zensun, anti-ErbB2 monoclonal antibody) was diluted to 6 μg/ml by coating buffer (50 mM Na2CO3—NaHCO3, pH9.6), and added to 96 well plate 50 μl/well. The plate was left at 4° C. overnight to coat with antibody.
DMEM was added to two wells as blank. The plate was incubated at 37° C. for 20 min. The cells were washed once with PBS before adding 100 μl/well lysis buffer (50 mM Hepes, pH 8.0, 150 mM NaCl, 2 mM sodium orthovanadate, 0.01% thimerosal, 1% Triton X-100 and one protease inhibitor cocktail tablet per 25 ml solution) and lysing at 4° C. for 30 min. […]

As to `CSCC[C@@H]1NC(=O)[C@H](Cc2ccccc2)NC(=O)[C@@H]2CSSC[C@H](NC(=O)[C@H](CCCCN)NC(=O)[C@@H](NC(=O)[C@H](CC(C)C)NC(=O)[C@H](Cc3c[nH]cn3)NC(=O)[C@@H](N)CO)C(C)C)C(=O)N[C@@H](C)C(=O)N[C@@H](CCC(=O)O)C(=O)N[C@@H](CCCCN)C(=O)N[C@@H](CCC(=O)O)C(=O)N[C@@H](CCCCN)C(=O)N[C@@H]([C@@H](C)O)C(=O)N[C@@H](Cc3ccccc3)C(=O)N[C@@H](CSSC[C@@H](C(=O)N[C@@H](CCCCN)C(=O)N[C@H]3CSSC[C@@H](C(=O)N[C@@H](CCC(N)=O)C(=O)N[C@@H](CC(N)=O)C(=O)N[C@@H](Cc4ccc(O)cc4)C(=O)N[C@H](C(=O)N[C@@H](CCSC)C(=O)N[C@@H](C)C(=O)N[C@@H](CO)C(=O)N[C@@H](Cc4ccccc4)C(=O)N[C@@H](Cc4ccc(O)cc4)C(=O)N[C@@H](CCCCN)C(=O)N[C@@H](C)C(=O)N[C@@H](CCC(=O)O)C(=O)O)C(C)C)NC(=O)[C@H](CCCNC(=N)N)NC(=O)[C@H](CC(=O)O)NC(=O)CNC(=O)[C@H]([C@@H](C)O)NC(=O)[C@H](Cc4ccccc4)NC(=O)[C@H](CCC(=O)O)NC(=O)[C@H](CC(N)=O)NC(=O)[C@@H]4CCCN4C3=O)NC(=O)[C@H](CC(C)C)NC(=O)[C@H](Cc3ccc(O)cc3)NC(=O)[C@H](CCCNC(=N)N)NC(=O)[C@H](CO)NC(=O)[C@@H]3CCCN3C(=O)[C@H](CC(N)=O)NC(=O)[C@H](CO)NC(=O)[C@H](CC(C)C)NC(=O)[C@H](CC(=O)O)NC(=O)[C@H](CCCCN)NC(=O)[C@H](C(C)C)NC1=O)C(=O)N[C@@H](C(C)C)C(=O)N[C@@H](CC(N)=O)C(=O)NCC(=O)NCC(=O)N[C@@H](CCC(=O)O)C(=O)N2` [NRG57], the “effect on AKT phosphorylation compared with NRG” value (“effect … compared with NRG” for short) in assay [1] was “almost have the same effect as NRG”.

As for `CSCC[C@@H]1NC(=O)[C@H](Cc2ccccc2)NC(=O)[C@@H]2CSSC[C@H](NC(=O)[C@H](CCCCN)NC(=O)[C@@H](NC(=O)[C@H](CC(C)C)NC(=O)[C@H](Cc3c[nH]cn3)NC(=O)[C@@H](N)CO)C(C)C)C(=O)N[C@@H](C)C(=O)N[C@@H](CCC(=O)O)C(=O)N[C@@H](CCCCN)C(=O)N[C@@H](CCC(=O)O)C(=O)N[C@@H](CCCCN)C(=O)N[C@@H]([C@@H](C)O)C(=O)N[C@@H](Cc3ccccc3)C(=O)N[C@@H](CSSC[C@@H](C(=O)N[C@@H](CCCCN)C(=O)N[C@H]3CSSC[C@@H](C(=O)N[C@@H](CCC(N)=O)C(=O)N[C@@H](CC(N)=O)C(=O)N[C@@H](Cc4ccc(O)cc4)C(=O)N[C@H](C(=O)N[C@@H](CCSC)C(=O)N[C@@H](C)C(=O)N[C@@H](CO)C(=O)N[C@@H](Cc4ccccc4)C(=O)N[C@@H](Cc4ccc(O)cc4)C(=O)N[C@@H](CCCCN)C(=O)N[C@@H](C)C(=O)N[C@@H](CCC(=O)O)C(=O)N[C@@H](CCC(=O)O)C(=O)N[C@@H](CC(C)C)C(=O)O)C(C)C)NC(=O)[C@H](CCCNC(=N)N)NC(=O)[C@H](CC(=O)O)NC(=O)CNC(=O)[C@H]([C@@H](C)O)NC(=O)[C@H](Cc4ccccc4)NC(=O)[C@H](CCC(=O)O)NC(=O)[C@H](CC(N)=O)NC(=O)[C@@H]4CCCN4C3=O)NC(=O)[C@H](CC(C)C)NC(=O)[C@H](Cc3ccc(O)cc3)NC(=O)[C@H](CCCNC(=N)N)NC(=O)[C@H](CO)NC(=O)[C@@H]3CCCN3C(=O)[C@H](CC(N)=O)NC(=O)[C@H](CO)NC(=O)[C@H](CC(C)C)NC(=O)[C@H](CC(=O)O)NC(=O)[C@H](CCCCN)NC(=O)[C@H](C(C)C)NC1=O)C(=O)N[C@@H](C(C)C)C(=O)N[C@@H](CC(N)=O)C(=O)NCC(=O)NCC(=O)N[C@@H](CCC(=O)O)C(=O)N2` [NRG59], the “effect … compared with NRG” value in assay [1] is on record as “almost have the same effect as NRG”.

On to `CSCC[C@@H]1NC(=O)[C@H](Cc2ccccc2)NC(=O)[C@@H]2CSSC[C@H](NC(=O)[C@H](CCCCN)NC(=O)[C@@H](NC(=O)[C@H](CC(C)C)NC(=O)[C@H](Cc3c[nH]cn3)NC(=O)[C@@H](N)CO)C(C)C)C(=O)N[C@@H](C)C(=O)N[C@@H](CCC(=O)O)C(=O)N[C@@H](CCCCN)C(=O)N[C@@H](CCC(=O)O)C(=O)N[C@@H](CCCCN)C(=O)N[C@@H]([C@@H](C)O)C(=O)N[C@@H](Cc3ccccc3)C(=O)N[C@@H](CSSC[C@@H](C(=O)N[C@@H](CCCCN)C(=O)N[C@H]3CSSC[C@@H](C(=O)N[C@@H](CCC(N)=O)C(=O)N[C@@H](CC(N)=O)C(=O)N[C@@H](Cc4ccc(O)cc4)C(=O)N[C@H](C(=O)N[C@@H](CCSC)C(=O)N[C@@H](C)C(=O)N[C@@H](CO)C(=O)N[C@@H](Cc4ccccc4)C(=O)N[C@@H](Cc4ccc(O)cc4)C(=O)N[C@@H](CCCCN)C(=O)O)C(C)C)NC(=O)[C@H](CCCNC(=N)N)NC(=O)[C@H](CC(=O)O)NC(=O)CNC(=O)[C@H]([C@@H](C)O)NC(=O)[C@H](Cc4ccccc4)NC(=O)[C@H](CCC(=O)O)NC(=O)[C@H](CC(N)=O)NC(=O)[C@@H]4CCCN4C3=O)NC(=O)[C@H](CC(C)C)NC(=O)[C@H](Cc3ccc(O)cc3)NC(=O)[C@H](CCCNC(=N)N)NC(=O)[C@H](CO)NC(=O)[C@@H]3CCCN3C(=O)[C@H](CC(N)=O)NC(=O)[C@H](CO)NC(=O)[C@H](CC(C)C)NC(=O)[C@H](CC(=O)O)NC(=O)[C@H](CCCCN)NC(=O)[C@H](C(C)C)NC1=O)C(=O)N[C@@H](C(C)C)C(=O)N[C@@H](CC(N)=O)C(=O)NCC(=O)NCC(=O)N[C@@H](CCC(=O)O)C(=O)N2` [NRG55], for which the “effect … compared with NRG” value in assay [1] is recorded as “much stronger effect than NRG”.

B1: SHLVKCAEKEKTFCVNGGECFMVKDLSNPSRYLCKCPNEFTGDRCQNYVMASFYKAEELYQ (protein)
chain: SHLVKCAEKEKTFCVNGGECFMVKDLSNPSRYLCKCPNEFTGDRCQNYVMASFYKAEELYQ
modifications: chains of the parent or of the whole protein
For the molecule B1, the concentration for a half-maximal effect (EC50) with ErbB2 receptor is 1.439 µg/mL.

B2: NRG: full length wild type neuregulin β2 peptide (protein)
chain: B1 chain
Turning to B2, the EC50 in the assay with ErbB2 receptor amounted to 0.2772 µg/mL.
